Reference: ChEMBL document CHEMBL1201862, “PubChem BioAssay data set” (2004)
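1) Cells in 96-well plates. 2) Compound, 48 h, 5 concentrations. 3) Linear interpolation between surrounding doses. 4) Unreached endpoint = highest concentration. GI50 = concentration required for 50% inhibition of growth.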 Calls of active or inactive are those of the source. Cut-off read from the data, not from the text of the source: active = GI50 up to about 1.1 µM and inactive = higher.

How the values were obtained:
Assay in all cases: NCI anticancer screen, dose series, 48 h
786-0 = tested on: 786-0
A498 = tested on: A498
A549 = tested on: A549
ACHN = tested on: ACHN
CAKI-1 = tested on: CAKI-1
CCRF-CEM = tested on: CCRF-CEM
COLO 205 = tested on: COLO 205
DLD-1 = tested on: DLD-1
DMS-114 = tested on: DMS-114
DMS-273 = tested on: DMS-273
EKVX = tested on: EKVX
HCC 2998 = tested on: HCC 2998
HCT-116 = tested on: HCT-116
HCT-15 = tested on: HCT-15
HL-60 = tested on: HL-60
HOP-62 = tested on: HOP-62
HOP-92 = tested on: HOP-92
HT-29 = tested on: HT-29
IGROV-1 = tested on: IGROV-1
K562 = tested on: K562
KM-20L2 = tested on: KM-20L2
KM12 = tested on: KM12
LOX IMVI = tested on: LOX IMVI
LXFL 529 = tested on: LXFL 529
M14 = tested on: M14
M19-MEL = tested on: M19-MEL
MOLT-4 = tested on: MOLT-4
Malme-3M = tested on: Malme-3M
NCI-H226 = tested on: NCI-H226
NCI-H23 = tested on: NCI-H23
NCI-H460 = tested on: NCI-H460
NCI-H522 = tested on: NCI-H522
OVCAR-3 = tested on: OVCAR-3
OVCAR-4 = tested on: OVCAR-4
OVCAR-5 = tested on: OVCAR-5
OVCAR-8 = tested on: OVCAR-8
RPMI-8226 = tested on: RPMI-8226
RXF 393 = tested on: RXF 393
RXF 631 = tested on: RXF 631
SF-268 = tested on: SF-268
SF-539 = tested on: SF-539
SK-MEL-28 = tested on: SK-MEL-28
SK-MEL-2 = tested on: SK-MEL-2
SK-MEL-5 = tested on: SK-MEL-5
SK-OV-3 = tested on: SK-OV-3
SN12C = tested on: SN12C
SNB-19 = tested on: SNB-19
SNB-75 = tested on: SNB-75
SNB-78 = tested on: SNB-78
SR = tested on: SR
SW-620 = tested on: SW-620
TK-10 = tested on: TK-10
U-251 = tested on: U-251
UACC-257 = tested on: UACC-257
UO-31 = tested on: UO-31
UACC-62 = tested on: UACC-62
XF498 = tested on: XF498

Q: How did the GI50 (786-0) turn out when Cc1nccc2c1cnc1ccnn12 was run?
A: > 100 µM (inactive)

Q: What about the GI50 (A498) of the same compound?
A: > 100 µM (inactive)

Q: What about the GI50 (A549) of the same compound?
A: > 100 µM (inactive)

Q: And the GI50 (ACHN)?
A: > 100 µM (inactive)

Q: And the GI50 (CAKI-1)?
A: > 100 µM (inactive)

Q: What about the GI50 (CCRF-CEM) of the same compound?
A: > 100 µM (inactive)

Q: What about the GI50 (COLO 205) of the same compound?
A: > 100 µM (inactive)

Q: And the GI50 (DLD-1)?
A: > 100 µM (inactive)

Q: And the GI50 (DMS-114)?
A: > 100 µM (inactive)

Q: And the GI50 (DMS-273)?
A: > 100 µM (inactive)

Q: What about the GI50 (EKVX) of the same compound?
A: 67.1 µM (inactive)

Q: What about the GI50 (HCC 2998) of the same compound?
A: > 100 µM (inactive)

Q: What about the GI50 (HCT-116) of the same compound?
A: > 100 µM (inactive)

Q: And the GI50 (HCT-15)?
A: > 100 µM

Q: And the GI50 (HL-60)?
A: > 100 µM (inactive)

Q: What about the GI50 (HOP-62) of the same compound?
A: > 100 µM (inactive)

Q: And the GI50 (HOP-92)?
A: > 100 µM (inactive)

Q: And the GI50 (HT-29)?
A: > 100 µM (inactive)

Q: And the GI50 (IGROV-1)?
A: > 100 µM (inactive)

Q: And the GI50 (K562)?
A: > 100 µM (inactive)

Q: What about the GI50 (KM-20L2) of the same compound?
A: > 100 µM (inactive)

Q: What about the GI50 (KM12) of the same compound?
A: > 100 µM (inactive)

Q: What about the GI50 (LOX IMVI) of the same compound?
A: > 100 µM (inactive)

Q: What about the GI50 (LXFL 529) of the same compound?
A: > 100 µM (inactive)

Q: What about the GI50 (M14) of the same compound?
A: > 100 µM (inactive)

Q: What about the GI50 (M19-MEL) of the same compound?
A: > 100 µM (inactive)

Q: What about the GI50 (MOLT-4) of the same compound?
A: > 100 µM (inactive)

Q: And the GI50 (Malme-3M)?
A: > 100 µM (inactive)

Q: And the GI50 (NCI-H226)?
A: > 100 µM (inactive)

Q: And the GI50 (NCI-H23)?
A: > 100 µM (inactive)

Q: What about the GI50 (NCI-H460) of the same compound?
A: > 100 µM (inactive)

Q: And the GI50 (NCI-H522)?
A: > 100 µM (inactive)

Q: What about the GI50 (OVCAR-3) of the same compound?
A: > 100 µM (inactive)

Q: What about the GI50 (OVCAR-4) of the same compound?
A: > 100 µM (inactive)

Q: What about the GI50 (OVCAR-5) of the same compound?
A: > 100 µM (inactive)

Q: And the GI50 (OVCAR-8)?
A: > 100 µM (inactive)

Q: What about the GI50 (RPMI-8226) of the same compound?
A: > 100 µM (inactive)

Q: And the GI50 (RXF 393)?
A: > 100 µM (inactive)

Q: What about the GI50 (RXF 631) of the same compound?
A: > 100 µM (inactive)

Q: And the GI50 (SF-268)?
A: > 100 µM (inactive)

Q: What about the GI50 (SF-539) of the same compound?
A: > 100 µM (inactive)

Q: And the GI50 (SK-MEL-28)?
A: > 100 µM (inactive)

Q: What about the GI50 (SK-MEL-2) of the same compound?
A: > 100 µM (inactive)

Q: What about the GI50 (SK-MEL-5) of the same compound?
A: > 100 µM (inactive)

Q: What about the GI50 (SK-OV-3) of the same compound?
A: > 100 µM (inactive)

Q: And the GI50 (SN12C)?
A: > 100 µM (inactive)

Q: And the GI50 (SNB-19)?
A: > 100 µM (inactive)

Q: What about the GI50 (SNB-75) of the same compound?
A: > 100 µM (inactive)

Q: And the GI50 (SNB-78)?
A: > 100 µM (inactive)

Q: What about the GI50 (SR) of the same compound?
A: > 100 µM (inactive)

Q: And the GI50 (SW-620)?
A: > 100 µM (inactive)

Q: And the GI50 (TK-10)?
A: > 100 µM (inactive)

Q: What about the GI50 (U-251) of the same compound?
A: > 100 µM (inactive)

Q: What about the GI50 (UACC-257) of the same compound?
A: > 100 µM (inactive)

Q: And the GI50 (UO-31)?
A: > 100 µM (inactive)

Q: Which results are given for CC(C)(C)NC(=O)NC12CC3CC(CC(F)(C3)C1)C2?
A: GI50 (786-0): > 100 µM (inactive); GI50 (A498): > 100 µM (inactive); GI50 (A549): > 100 µM (inactive); GI50 (ACHN): > 100 µM (inactive); GI50 (CCRF-CEM): > 100 µM (inactive); GI50 (COLO 205): > 100 µM (inactive); GI50 (DLD-1): > 100 µM (inactive); GI50 (DMS-114): > 100 µM (inactive); GI50 (DMS-273): > 100 µM (inactive); GI50 (EKVX): > 100 µM (inactive); GI50 (HCC 2998): > 100 µM (inactive); GI50 (HCT-116): > 100 µM (inactive); GI50 (HL-60): > 100 µM (inactive); GI50 (HOP-62): > 100 µM (inactive); GI50 (HOP-92): > 100 µM (inactive); GI50 (HT-29): > 100 µM (inactive); GI50 (IGROV-1): > 100 µM (inactive); GI50 (K562): > 100 µM (inactive); GI50 (KM-20L2): > 100 µM (inactive); GI50 (KM12): > 100 µM (inactive); GI50 (LOX IMVI): > 100 µM (inactive); GI50 (LXFL 529): > 100 µM (inactive); GI50 (M14): > 100 µM (inactive); GI50 (M19-MEL): > 100 µM (inactive); GI50 (MOLT-4): > 100 µM (inactive); GI50 (Malme-3M): > 100 µM (inactive); GI50 (NCI-H23): > 100 µM (inactive); GI50 (NCI-H460): > 100 µM (inactive); GI50 (NCI-H522): > 100 µM (inactive); GI50 (OVCAR-3): > 100 µM (inactive); GI50 (OVCAR-5): > 100 µM (inactive); GI50 (OVCAR-8): > 100 µM (inactive); GI50 (RPMI-8226): > 100 µM (inactive); GI50 (RXF 393): > 100 µM (inactive); GI50 (RXF 631): > 100 µM (inactive); GI50 (SF-539): > 100 µM (inactive); GI50 (SK-MEL-28): > 100 µM (inactive); GI50 (SK-MEL-2): > 100 µM (inactive); GI50 (SK-OV-3): > 100 µM (inactive); GI50 (SNB-19): > 100 µM (inactive); GI50 (SNB-75): 52.7 µM (inactive); GI50 (SNB-78): > 100 µM (inactive); GI50 (SW-620): > 100 µM (inactive); GI50 (TK-10): > 100 µM (inactive); GI50 (U-251): > 100 µM (inactive); GI50 (UACC-257): > 100 µM (inactive); GI50 (UACC-62): > 100 µM (inactive); GI50 (UO-31): > 100 µM (inactive); GI50 (XF498): > 100 µM (inactive)
